Assay results from patent publication US6750268B2, “Bonding composition” (Kuraray Co., Ltd., priority 1999, dated 2004).

What was measured:
[1] = Measurement of pH of acid; assay type: physicochemical; conditions: one part by weight of acid in 99 parts by weight of distilled water
Description: One part by weight of the acid to be measured is mixed with 99 parts by weight of distilled water, and the pH of the resulting mixture is measured with a pH meter (Iuchi's pH meter).

[2] = Solubility of a calcium salt of an acid in water; conditions: for Calcium Salt of Acid: Solubility in water: room temperature, macroscopic check clear or cloudy
Description: Next, powdery calcium carbonate (0.1 mmols) is fed into the test tube, and stirred at room temperature for 10 minutes so that it is reacted with the acid. The resulting solution is macroscopically checked as to whether it is clear or cloudy. The solubility of the calcium salt in the clear solution is above 0.1 M/L, and the acid is marked “x”.
To the cloudy solution in the test tube, 9 ml of distilled water is further added, and stirred at room temperature for 30 minutes. This is again checked macroscopically. […] When it is still cloudy in this condition, the solubility of the calcium salt is below 0.01 M/L, and the acid is marked “O”. In case where the solubility of the calcium salt of the acid tested is numerically represented, test tubes having a proper capacity are prepared, and the process as above is repeated in them. Salt solutions having different concentrations are prepared, and they are macroscopically checked to quantitatively determine the solubility of the salt.

[3] = Solubility of calcium salt of acid in film-forming agent
Description: Next, powdery calcium carbonate (0.1 mmols) is fed into the test tube, and stirred at room temperature for 10 minutes so that it is reacted with the acid to give a calcium salt of the acid. Next, the resulting solution is dried in a drier at 60° C. for 16 hours to remove water, and the 1 ml of a film-forming agent is added to the resulting residue. This is stirred at room temperature for 30 minutes, and the resulting solution is macroscopically checked as to whether it is clear or cloudy. The solubility of the calcium salt in the clear solution is above 0.1 M/L, and the acid is marked “x”.
To the cloudy solution in the test tube, 9 ml of the film-forming agent is further added, and stirred at room temperature for 30 minutes. This is again checked macroscopically. […] When it is still cloudy in this condition, the solubility of the calcium salt is below 0.01 M/L, and the acid is marked “O”. For easily-available calcium salts of acids, such as calcium chloride. calcium nitrate and others, they are not produced in the manner as above, but commercial products are used to measure their solubility.

[4] = Miscibility of film-forming agent with physiological saline solution (uniformity of solution); assay type: physicochemical; conditions: film-forming agent mixed with same weight of physiological saline solution 9 g/L, room temperature, shaken 20 seconds, macroscopically checked
Description: The film-forming agent must be soluble in water. Preferably, at least 5% by weight of the agent are soluble in water. More preferably, it is soluble in water in any ratio. In addition, the water-soluble film-forming agent must be miscible with a physiological saline solution. Whether the film-forming agent is miscible with a physiological saline solution or not can be determined from its phase diagram. […] The uniformity of the resulting solution is determined. Accordingly, the miscibility of the film-forming agent with a physiological saline solution can be determined in a simple manner.
About 1 g of the film-forming agent shown in Table 1 below was metered into a 5 ml glass bottle, and a physiological saline solution with a concentration of 9 g/L of which the weight was the same as that of the film-forming agent was put into the glass bottle, and shaken at room temperature for 20 seconds. The resulting mixture was macroscopically checked as to whether or not it could be a uniform solution.

[5] = film-forming agent 65% HEMA, 30% BMHPE, 5% Bis-GMA (Table 3)
[6] = film-forming agent 90% by weight HEMA and 10% by weight BMHPE (Table 2)

Molecule	pH of Acid [1]	Calcium Salt of Acid: Solubility in Film-forming Agent [3, 6]	Solubility (Uniformity of Reference Solutions) [4]	other results
8-methacryloyloxyoctyl phosphate [Example 8MOP]	2.2	–	–	–
9-methacryloyloxynonyl phosphate [Example 9MNP]	2.2	◯	–	Calcium Salt of Acid: Solubility in water [2]: ◯; Calcium Salt of Acid: Solubility in Film-forming Agent [3, 5]: ◯
12-methacryloyloxydodecyl phosphate [Example 12MLP]	2.3	◯	–	Calcium Salt of Acid: Solubility in water [2]: ◯; Calcium Salt of Acid: Solubility in Film-forming Agent [3, 5]: ◯
C=C(C)C(=O)OCC(O)COCCOCC(O)COC(=O)C(=C)C (centres unmarked) [BMHPE, 1,2-bis(3-methacryloxy-2-hydroxypropoxy)ethane]	–	–	not dissolved	–
C=C(C)C(=O)OCCOP(=O)(O)O [Example 2MEP, 2-methacryloyloxyethyl phosphate]	1.7	◯	–	Calcium Salt of Acid: Solubility in water [2]: ◯
C=C(C)C(=O)OCCCCCCCCCCOP(=O)(O)O [Example 10MDP, 10-methacryloyloxydecyl phosphate]	2.3	◯	–	solubility in water of calcium salt ([2]; numerical value): 0.0003 M/L; Calcium Salt of Acid: Solubility in water [2]: ◯; Calcium Salt of Acid: Solubility in Film-forming Agent [3, 5]: ◯
C=C(C)C(=O)OCC(O)CO (centres unmarked) [GLM, glycerol monomethacrylate]	–	–	dissolved	–
C=C(C)C(=O)OCCO [HEMA, hydroxyethyl methacrylate]	–	–	dissolved	–
C=C(C)C(=O)OCCCO [HPMA, hydroxypropyl methacrylate]	–	–	not dissolved	–
C=C(C)C(=O)O [MRA, methacrylic acid, reference compound]	2.9	◯	–	–
Cl [hydrochloric acid]	0.9	–	–	–
O=[N+]([O-])O [nitric acid]	0.9	–	–	–
O=S(=O)(O)O [sulfuric acid]	1.1	–	–	–
monomethacrylate of polyethylene glycol 200 [PE-200-OH]	–	–	dissolved	–

Now from value to molecule, other results behind:

pH of Acid [1]	Calcium Salt of Acid: Solubility in Film-forming Agent [3, 6]	Solubility (Uniformity of Reference Solutions) [4]	Molecule	other results
1.4	◯	–	Cc1ccc(S(=O)(=O)O)cc1 [TSA, p-toluenesulfonic acid, reference compound]	solubility of the calcium salt of the acid in water (in words) ([2]; description, acid used in place of the polymerizable compound having an acid group): too high
1.6	–	–	O=C(O)CC(O)(CC(=O)O)C(=O)O [citric acid]	–
1.3	–	–	O=C(O)C(=O)O [oxalic acid]	–
1.6	–	–	O=P(O)(O)O [phosphoric acid]	–
–	–	not dissolved	dimethacrylate of polyethylene glycol 200 [PE-200-OMR]	–
1.7	–	–	phenyl-2-methacryloyloxyethyl phosphate [PMEP]	–
